Where two headings read alike, the source gives them in different places.

The values below come from article PMC3609026 (Cancer, 2011).

Series [1] is classed as in vivo, human. To be noted: through cycles 1 and 2, combination treatment.
Series [2] is described as follows: Pharmacokinetics: everolimus blood levels, LC/MS, noncompartmental analysis. The note with it: through cycles 1 and 2, combination treatment. It counts as in vivo, human.
In series [3] the test system is advanced non-clear cell RCC. The note with it: single agent, 23 patients with advanced non-clear cell RCC; cited from earlier work.

With `CCNCCNC(=O)c1c(C)[nH]c(/C=C2\C(=O)Nc3ccc(F)cc32)c1C` [N-desethyl sunitinib], the accumulation result in series [1] was “No unexpected accumulation”.
Regarding `CO[C@H]1C[C@@H]2CC[C@@H](C)[C@@](O)(O2)C(=O)C(=O)N2CCCC[C@H]2C(=O)O[C@H]([C@H](C)C[C@@H]2CC[C@@H](OCCO)[C@H](OC)C2)CC(=O)[C@H](C)/C=C(\C)[C@@H](O)[C@@H](OC)C(=O)[C@H](C)C[C@H](C)/C=C/C=C/C=C/1C` [everolimus], the accumulation entry in series [2] is given as “No unexpected accumulation”.
Consider `CCN(CC)CCNC(=O)c1c(C)[nH]c(/C=C2\C(=O)Nc3ccc(F)cc32)c1C` [sunitinib], for which, in series [3], the “median PFS” value is 5.5 months and the responses entry is recorded as “no responses”.
